In patent EP4725957A1, “GROUP OF CYCLIC ALKALINE LIPOPEPTIDE COMPOUNDS, AND PREPARATION METHOD THEREFOR AND USE THEREOF” (Institute of Medicinal Biotechnology, Chinese Academy of …, priority 2023, dated 2024):
≈ marks a conversion by molar mass, not a printed value. Bridge positions count the residues as written; N and C are the ends. Square brackets hold non-standard residues; d marks the D form. Peptide text beside a SMILES is read from it. * marks the point of attachment. Dab(CH2SO3H) = N[C@@H](CCNCS(=O)(=O)O)C(=O)O; Heptanoyl(6-Me) = CC(C)CCCCC(=O)*; dOrn = NCCC[C@@H](N)C(=O)O; dDab = NCC[C@@H](N)C(=O)O; Heptanoyl = CCCCCCC(=O)*; Orn = NCCC[C@H](N)C(=O)O; Dab = NCC[C@H](N)C(=O)O; Dap = NC[C@H](N)C(=O)O

Assays:
Assay type in all cases: cell-based
[1] = tested on: Acinetobacter baumannii ABA19-1; settings: ABA19-1
Method in brief: (§1)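 Broth microdilution per CLSI in Mueller-Hinton broth. Compounds were tested at final concentrations of 64 to 0.03 mg/L (two-fold steps) against an inoculum of (2-4) × 10^5 CFU/mL, with incubation at 35-37°C for 16-20 h to give the MIC.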

[2] = tested on: Klebsiella pneumoniae ATCC BAA-1705 (KPC); settings: ATCC BAA-1705
Method in brief: as §1

[3] = tested on: Pseudomonas aeruginosa ATCC 27853; settings: ATCC 27853
Method in brief: as §1

[4] = tested on: Klebsiella pneumoniae KPN+19-15; settings: KPN+19-15
Method in brief: as §1

[5] = tested on: Escherichia coli ATCC BAA-2340 (KPC); settings: ATCC BAA-2340
Method in brief: as §1

[6] = tested on: Escherichia coli ATCC BAA-2523; settings: ATCC BAA-2523
Method in brief: as §1

[7] = tested on: Acinetobacter baumannii NCTC 13304 (OXA-27); settings: NCTC 13304
Method in brief: as §1

[8] = tested on: Pseudomonas aeruginosa PAE19-3; settings: PAE19-3
Method in brief: as §1

[9] = Nephrotoxicity assay: in vitro cytotoxicity of HK-2 cells by CCK-8 assay; settings: human, HK-2 cells (human renal), 72 h incubation with drug-containing medium
Method in brief: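 HK-2 human renal cells in RPMI-1640 with 10% FBS were exposed to compounds at final 12.5–500 µg/mL for 72 h, then CCK-8 for 3 h and OD450 read. Viability was normalised to drug-free wells; IC50 came from logarithmic regression over three repeats, with polymyxin B as positive drug.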

| Compound | MIC [1] [µg/mL] | MIC [2] [µg/mL] | MIC [3] [µg/mL] | MIC [4] [µg/mL] | MIC [5] [µg/mL] | MIC [6] [µg/mL] | MIC [7] [µg/mL] | MIC [8] [µg/mL] | IC50 at 72 h [9] [µg/mL] |
| --- | --- | --- | --- | --- | --- | --- | --- | --- | --- |
| CCCCCCC(=O)N[C@@H](CCN)C(=O)N[C@H](C(=O)N[C@@H](CCN)C(=O)N[C@H]1CCNC(=O)[C@H]([C@@H](C)O)NC(=O)[C@H](CCN)NC(=O)[C@H](CCN)NC(=O)[C@H]([C@@H](C)O)NC(=O)[C@@H](Cc2ccccc2)NC(=O)[C@H](CCN)NC1=O)[C@@H](C)O [Compound 19, Heptanoyl-Dab-Thr-Dab-ring(4-10)[Dab-Dab-D-Phe-Thr-Dab-Dab-Thr]] (Heptanoyl-[Dab]T[Dab][Dab][Dab][dF]T[Dab][Dab]T; lactam 4-C) | 0.5 (≈ 0.43 µM) | 0.06 (≈ 0.0516 µM) | 2 (≈ 1.72 µM) | 0.03 (≈ 0.0258 µM) | 0.03 (≈ 0.0258 µM) | 0.03 (≈ 0.0258 µM) | 0.25 (≈ 0.215 µM) | 2 (≈ 1.72 µM) | > 500 |
| CCCCCCC(=O)N[C@@H](CN)C(=O)N[C@H](C(=O)N[C@H](CCN)C(=O)N[C@H]1CCNC(=O)[C@H]([C@@H](C)O)NC(=O)[C@H](CCN)NC(=O)[C@H](CCN)NC(=O)[C@H](CC(C)C)NC(=O)[C@@H](Cc2ccccc2)NC(=O)[C@H](CCN)NC1=O)[C@@H](C)O [Compound 94, Heptanoyl-Dap-Thr-D-Dab-ring(4-10)[Dab-Dab-D-Phe-Leu-Dab-Dab-Thr]] (Heptanoyl-[Dap]T[dDab][Dab][Dab][dF]L[Dab][Dab]T; lactam 4-C) | 0.03 (≈ 0.0258 µM) | 0.03 (≈ 0.0258 µM) | 1 (≈ 0.861 µM) | 0.03 (≈ 0.0258 µM) | 0.06 (≈ 0.0517 µM) | 0.06 (≈ 0.0517 µM) | 0.03 (≈ 0.0258 µM) | 1 (≈ 0.861 µM) | 298 ± 30.7 (≈ 257 µM) |
| CC(C)CCCCC(=O)N[C@@H](CN)C(=O)N[C@H](C(=O)N[C@H](CCN)C(=O)N[C@H]1CCNC(=O)[C@H]([C@@H](C)O)NC(=O)[C@H](CCN)NC(=O)[C@H](CCN)NC(=O)[C@H](CC(C)C)NC(=O)[C@@H](CC(C)C)NC(=O)[C@H](CCN)NC1=O)[C@@H](C)O [Compound 97, 6-methylheptanoyl-Dap-Thr-D-Dab-ring(4-10)[Dab-Dab-D-Leu-Leu-Dab-Dab-Thr]] ({Heptanoyl(6-Me)}-[Dap]T[dDab][Dab][Dab][dL]L[Dab][Dab]T; lactam 4-C) | 0.03 (≈ 0.0263 µM) | 0.03 (≈ 0.0263 µM) | 0.5 (≈ 0.438 µM) | 0.03 (≈ 0.0263 µM) | 0.03 (≈ 0.0263 µM) | 0.03 (≈ 0.0263 µM) | 0.03 (≈ 0.0263 µM) | 0.5 (≈ 0.438 µM) | 217 ± 11.2 (≈ 190 µM) |
| CC(C)CCCCC(=O)N[C@@H](CCN)C(=O)N[C@H](C(=O)N[C@@H](CCN)C(=O)N[C@H]1CCNC(=O)[C@H]([C@@H](C)O)NC(=O)[C@H](CCN)NC(=O)[C@H](CCN)NC(=O)[C@H]([C@@H](C)O)NC(=O)[C@@H](Cc2ccccc2)NC(=O)[C@H](CCN)NC1=O)[C@@H](C)O [Compound 17, 6-methylheptanoyl-Dab-Thr-Dab-ring(4-10)[Dab-Dab-D-Phe-Thr-Dab-Dab-Thr]] ({Heptanoyl(6-Me)}-[Dab]T[Dab][Dab][Dab][dF]T[Dab][Dab]T; lactam 4-C) | 0.5 (≈ 0.425 µM) | 0.5 (≈ 0.425 µM) | 0.5 (≈ 0.425 µM) | ≤0.03 | ≤0.03 | 0.06 (≈ 0.051 µM) | 0.25 (≈ 0.212 µM) | 0.5 (≈ 0.425 µM) | > 500 |
| CC(C)CCCCC(=O)N[C@@H](CCN)C(=O)N[C@H](C(=O)N[C@H](CO)C(=O)N[C@H]1CCNC(=O)[C@H]([C@@H](C)O)NC(=O)[C@H](CCN)NC(=O)[C@H](CCCN)NC(=O)[C@H]([C@@H](C)O)NC(=O)[C@@H](Cc2ccccc2)NC(=O)[C@H](CCN)NC1=O)[C@@H](C)O [Compound 77, 6-methylheptanoyl-Dab-Thr-D-Ser-ring(4-10)[Dab-Dab-D-Phe-Thr-Orn-Dab-Thr]] ({Heptanoyl(6-Me)}-[Dab]T[dS][Dab][Dab][dF]T[Orn][Dab]T; lactam 4-C) | 0.06 (≈ 0.0509 µM) | 0.25 (≈ 0.212 µM) | >64 | 0.5 (≈ 0.424 µM) | ≤0.03 | ≤0.03 | ≤0.03 | 64 (≈ 54.3 µM) | > 500 |
| CC(C)CCCCC(=O)N[C@@H](CCN)C(=O)N[C@H](C(=O)N[C@H](CCCN)C(=O)N[C@H]1CCNC(=O)[C@H]([C@@H](C)O)NC(=O)[C@H](CCN)NC(=O)[C@H](CCN)NC(=O)[C@H](CC(C)C)NC(=O)[C@@H](Cc2ccccc2)NC(=O)[C@H](CCN)NC1=O)[C@@H](C)O [Compound 42, 6-methylheptanoyl-Dab-Thr-D-Orn-ring(4-10)[Dab-Dab-D-Phe-Leu-Dab-Dab-Thr]] ({Heptanoyl(6-Me)}-[Dab]T[dOrn][Dab][Dab][dF]L[Dab][Dab]T; lactam 4-C) | 0.125 (≈ 0.104 µM) | 0.06 (≈ 0.0499 µM) | 0.25 (≈ 0.208 µM) | 0.125 (≈ 0.104 µM) | 0.03 (≈ 0.0249 µM) | 0.03 (≈ 0.0249 µM) | 0.06 (≈ 0.0499 µM) | 1 (≈ 0.831 µM) | 316 ± 6.7 (≈ 262 µM) |
| CCCCCCC(=O)N[C@@H](CCN)C(=O)N[C@H](C(=O)N[C@@H](CN)C(=O)N[C@H]1CCNC(=O)[C@H]([C@@H](C)O)NC(=O)[C@H](CCN)NC(=O)[C@H](CCN)NC(=O)[C@H]([C@@H](C)O)NC(=O)[C@@H](Cc2ccccc2)NC(=O)[C@H](CCN)NC1=O)[C@@H](C)O [Compound 9, Heptanoyl-Dab-Thr-Dap-ring(4-10)[Dab-Dab-D-Phe-Thr-Dab-Dab-Thr]] (Heptanoyl-[Dab]T[Dap][Dab][Dab][dF]T[Dab][Dab]T; lactam 4-C) | 0.03 (≈ 0.0261 µM) | 0.03 (≈ 0.0261 µM) | 0.125 (≈ 0.109 µM) | 0.03 (≈ 0.0261 µM) | 0.03 (≈ 0.0261 µM) | 0.03 (≈ 0.0261 µM) | 0.03 (≈ 0.0261 µM) | 0.25 (≈ 0.218 µM) | > 500 |
| CC(C)CCCCC(=O)N[C@@H](CCN)C(=O)N[C@H](C(=O)N[C@H](CCN)C(=O)N[C@H]1CCNC(=O)[C@H]([C@@H](C)O)NC(=O)[C@H](CCN)NC(=O)[C@H](CCN)NC(=O)[C@H]([C@@H](C)O)NC(=O)[C@@H](Cc2ccccc2)NC(=O)[C@H](CCN)NC1=O)[C@@H](C)O [Compound 12, 6-methylheptanoyl-Dab-Thr-D-Dab-ring(4-10)[Dab-Dab-D-Phe-Thr-Dab-Dab-Thr]] ({Heptanoyl(6-Me)}-[Dab]T[dDab][Dab][Dab][dF]T[Dab][Dab]T; lactam 4-C) | 0.06 (≈ 0.051 µM) | 0.125 (≈ 0.106 µM) | 0.5 (≈ 0.425 µM) | ≤0.03 | ≤0.03 | ≤0.03 | ≤0.03 | 0.5 (≈ 0.425 µM) | > 500 |
| CC(C)CCCCC(=O)N[C@@H](CCNCS(=O)(=O)O)C(=O)N[C@H](C(=O)N[C@@H](CN)C(=O)N[C@H]1CCNC(=O)[C@H]([C@@H](C)O)NC(=O)[C@H](CCN)NC(=O)[C@H](CCN)NC(=O)[C@H]([C@@H](C)O)NC(=O)[C@@H](Cc2ccccc2)NC(=O)[C@H](CCN)NC1=O)[C@@H](C)O [Compound 117, 6-methylheptanoyl-Dab(CH2SO3H)-Thr-Dap-ring(4-10)[Dab-Dab-D-Phe-Thr-Dab-Dab-Thr]] ({Heptanoyl(6-Me)}-[Dab(CH2SO3H)]T[Dap][Dab][Dab][dF]T[Dab][Dab]T; lactam 4-C) | 0.25 (≈ 0.199 µM) | 0.125 (≈ 0.0994 µM) | 0.25 (≈ 0.199 µM) | 0.125 (≈ 0.0994 µM) | 0.06 (≈ 0.0477 µM) | 0.06 (≈ 0.0477 µM) | 0.06 (≈ 0.0477 µM) | 0.5 (≈ 0.398 µM) | > 500 |
